Source: patent US20130259884A1, “PEPTIDES” ([…] SL, priority 2010, published 2013)
Where a SMILES comes first, the peptide text is derived from it.

Experiment: Water solubility of peptides when preparing stock solutions
Type: physicochemical
Details: stock solution in sterile distilled water or 100% DMSO; read-out: solubility of peptide (water soluble or water insoluble, dissolved in DMSO)
Procedure: For challenge, peptides were administered as follows: • Individual peptides (soluble). Individual water soluble peptides were dissolved as 10, 5 or 2.5 mg/ml stock solutions in sterile distilled water. Before use, each peptide was diluted in water to 2 mg/ml and 10 μl of this 2 mg/ml mix was added to 990 μl of media. Then 100 μl of this peptide/media mix was added to 100 μl of media containing 350,000 PBMC in an ELISPOT anti-IL-4 coated cell culture plate well for a final peptide concentration of 10 μg/ml. Identically diluted media only was added to the cells and used for the no peptide media control wells (media only). • Individual peptides (DMSO). Individual water insoluble peptides were dissolved in 100% DMSO to a stock concentration of 50 mg/ml. Before use each peptide was diluted in water to 2 mg/ml and then 10 μl of the 2 mg/ml mix was added to 990 μl of cell-culture media. Then 100 μl of this peptide/media mix was added to 100 μl of media containing 350,000 PBMC in an ELISPOT anti-IL-4 coated cell culture plate well for a final peptide concentration of 10 μg/ml. Identically diluted media only was added to the cells and used for the no peptide media control wells (media only). • A combination preparation containing Alt a 1 soluble peptides (33.2, 34.3, 35.4, 35.5, 37.3.1, 37.4.1, L6-5.01, L10-1.01, L10-2.01, L10-3), called Alt a 1 Sol. Each peptide was diluted from water stock to 2 mg/ml in sterile distilled water. Then 10 μl of each peptide required for the combined preparation was mixed and brought up to 1 ml in media. Then 100 μl of this peptide/media mix was added to 100 μl of media containing 350,000 PBMC in an ELISPOT anti-IL-4 coated cell culture plate well for a final concentration of each peptide of 10 μg/ml. Identically diluted media only was used for the no peptide control wells (media only). • A combination preparation containing Alt a 1 DMSO peptides (32.2.1, 38.2.1, 35.2, 35.3, L6-2, L6-3, L6-4, 38.3, 37.2), called Alt a 1 DMSO. Each peptide was diluted from DMSO stock to 2 mg/ml in sterile distilled water. Then 10 μl of each peptide required for the combined preparation was mixed and brought up to 1 ml in media. Then 100 μl of this peptide/media mix is added to 100 μl of media containing 350,000 PBMC in an ELISPOT anti-IL-4 coated cell culture plate well for a final concentration of each peptide of 10 μg/ml. Identically diluted media only was used for the no peptide control wells (media only). • A combination preparation containing non-Alt a 1 soluble peptides (40.2, 41.2, 43.2, 44.2, 46.2, 47.2.1, 56.2, 57.2.1, 60.2, 62.2.1, 67.2, 71.3), called Alt a Other Sol. Each peptide was diluted from water stock to 2 mg/ml in sterile distilled water. Then 10 μl of each peptide required for the combined preparation was mixed and brought up to 1 ml in media, Then 100 μl of this peptide/media mix was added to 100 μl of media containing 350,000 PBMC in an ELISPOT anti-IL-4 coated cell culture plate well for a final concentration of each peptide at 10 μg/ml. Identically diluted media only was used for the no peptide control wells (media only). • A combination preparation containing non-Alt a 1 DMSO peptides (39.2, 42.2, 45.2, 48.2.1, 50.2, 51.2.1, 61.2.1, 66.3.1, 68.2.1, 70.2, 71.2, 72.2), called Alt a Other DMSO. Each peptide was diluted from DMSO stock to 2 mg/ml in sterile distilled water. Then 10 ul of each peptide required for the combined preparation was mixed and brought up to 1 ml in media, Then 100 μl of this peptide/media mix was added to 100 μl of media containing 350,000 PBMC in an ELISPOT anti-IL-4 coated cell culture plate well for a final concentration of each peptide at 10 μg/ml. Identically diluted media only was used for the no peptide control wells (media only).

CC[C@H](C)[C@H](NC(=O)CNC(=O)[C@@H](N)C(C)C)C(=O)N[C@@H](Cc1ccccc1)C(=O)N[C@@H](CCCNC(=N)N)C(=O)N[C@@H](CC(=O)O)C(=O)N[C@@H](CC(=O)O)C(=O)N[C@@H](CCCNC(=N)N)C(=O)N[C@H](C(=O)N[C@@H](CCC(=O)O)C(=O)N[C@H](C(=O)N[C@H](C(=O)N[C@@H](C)C(=O)N[C@@H](CC(N)=O)C(=O)N[C@@H](CC(=O)O)C(=O)O)[C@@H](C)CC)[C@@H](C)CC)[C@@H](C)CC [Peptide 50.2, VGIFRDDRIEIIAND] (H-VGIFRDDRIEIIAND-OH; N-terminus and C-terminus assumed)
solubility: < 2500 µg/mL

CC(C)C[C@H](NC(=O)[C@H](C)NC(=O)[C@@H](NC(=O)[C@H](CCC(N)=O)NC(=O)[C@H](CC(N)=O)NC(=O)[C@@H](N)CCCCN)C(C)C)C(=O)N[C@@H](CC(N)=O)C(=O)N1CCC[C@H]1C(=O)N[C@H](C(=O)N[C@@H](CC(N)=O)C(=O)N[C@H](C(=O)N[C@H](C(=O)N[C@@H](Cc1ccccc1)C(=O)N[C@@H](CC(=O)O)C(=O)N[C@@H](C)C(=O)O)C(C)C)[C@@H](C)O)C(C)C [Peptide 51.2.1, KNQVALNPVNTVFDA] (H-KNQVALNPVNTVFDA-OH)
solubility: < 2500 µg/mL

CC[C@H](C)[C@H](NC(=O)[C@@H](NC(=O)[C@@H](NC(=O)[C@H](CC(C)C)NC(=O)[C@H](CCCCN)NC(=O)[C@H](CO)NC(=O)[C@@H](N)CC(C)C)C(C)C)[C@@H](C)O)C(=O)N[C@@H](C)C(=O)N[C@@H](CCCCN)C(=O)N[C@H](C(=O)N[C@@H](CC(=O)O)C(=O)N[C@@H](C)C(=O)N[C@H](C(=O)N[C@@H](CC(C)C)C(=O)N[C@@H](CC(N)=O)C(=O)O)[C@@H](C)O)C(C)C [Peptide 56.2, LSKLVTIAKVDATLN] (H-LSKLVTIAKVDATLN-OH)
solubility: > 2500 µg/mL

CC(C)C[C@H](NC(=O)CNC(=O)[C@H](CC(C)C)NC(=O)[C@H](CC(C)C)NC(=O)[C@H](CC(C)C)NC(=O)[C@H](Cc1ccc(O)cc1)NC(=O)[C@H](C)NC(=O)[C@H](C)NC(=O)[C@H](CC(C)C)NC(=O)[C@H](Cc1c[nH]cn1)NC(=O)[C@H](CCCCN)NC(=O)[C@@H](N)CC(C)C)C(=O)NCC(=O)NCC(=O)N[C@@H](CC(N)=O)C(=O)O [Peptide 57.2.1, LKHLAAYLLLGLGGN] (H-LKHLAAYLLLGLGGN-OH)
solubility: > 2500 µg/mL

CC(C)C[C@H](NC(=O)[C@H](C)NC(=O)[C@H](CCCCN)NC(=O)[C@H](CC(C)C)NC(=O)[C@H](CCCCN)NC(=O)[C@H](CCC(N)=O)NC(=O)[C@H](Cc1ccc(O)cc1)NC(=O)[C@@H](NC(=O)[C@H](CCC(=O)O)NC(=O)[C@H](C)N)C(C)C)C(=O)N[C@@H](C)C(=O)N[C@@H](CCCCN)C(=O)N[C@@H](CCCCN)C(=O)N[C@H](C(=O)N[C@@H](Cc1ccc(O)cc1)C(=O)O)[C@@H](C)O [Peptide 60.2, AEVYQKLKALAKKTY] (H-AEVYQKLKALAKKTY-OH)
solubility: > 2500 µg/mL

CC[C@H](C)[C@H](NC(=O)[C@H](C)N)C(=O)N[C@@H](CCC(=O)O)C(=O)N[C@@H](CC(C)C)C(=O)N[C@@H](CCCCN)C(=O)N[C@@H](CO)C(=O)N[C@H](C(=O)N[C@@H](CC(N)=O)C(=O)N[C@@H](C)C(=O)N[C@@H](CC(C)C)C(=O)N[C@@H](CC(C)C)C(=O)N[C@@H](CC(C)C)C(=O)N[C@@H](CCCCN)C(=O)N[C@H](C(=O)N[C@@H](CC(N)=O)C(=O)O)C(C)C)C(C)C [Peptide 61.2.1, AIELKSVNALLLKVN] (H-AIELKSVNALLLKVN-OH)
solubility: < 2500 µg/mL

CC(C)C[C@H](NC(=O)[C@@H](NC(=O)CNC(=O)[C@H](Cc1c[nH]c2ccccc12)NC(=O)CNC(=O)[C@H](C)NC(=O)CN)C(C)C)C(=O)N[C@H](C(=O)N[C@@H](CO)C(=O)N[C@@H](Cc1c[nH]cn1)C(=O)N[C@@H](CCCNC(=N)N)C(=O)N[C@@H](CO)C(=O)NCC(=O)N[C@@H](CCC(=O)O)C(=O)N[C@H](C(=O)O)[C@@H](C)O)C(C)C [Peptide 62.2.1, GAGWGVLVSHRSGET] (H-GAGWGVLVSHRSGET-OH)
solubility: > 2500 µg/mL

CC(C)C[C@H](NC(=O)[C@H](CC(N)=O)NC(=O)[C@H](C)NC(=O)[C@H](CC(C)C)NC(=O)[C@H](CC(C)C)NC(=O)[C@H](CO)NC(=O)[C@H](Cc1ccccc1)NC(=O)[C@H](C)NC(=O)[C@@H](NC(=O)[C@H](CCCCN)NC(=O)[C@H](Cc1ccc(O)cc1)NC(=O)CNC(=O)[C@H](CC(C)C)NC(=O)[C@@H]1CCCN1C(=O)[C@@H](N)C(C)C)[C@@H](C)O)C(=O)O [Peptide 66.3.1, VPLGYKTAFSLLANL] (H-VPLGYKTAFSLLANL-OH)
solubility: < 2500 µg/mL

CC[C@H](C)[C@H](NC(=O)[C@H](CC(=O)O)NC(=O)[C@H](CCC(N)=O)NC(=O)[C@@H]1CCCN1C(=O)[C@@H](NC(=O)[C@H](Cc1ccccc1)NC(=O)[C@H](CC(=O)O)NC(=O)[C@H](CO)NC(=O)[C@@H](N)CC(C)C)C(C)C)C(=O)N[C@@H](CCC(N)=O)C(=O)N[C@@H](CCCCN)C(=O)N[C@@H](CC(C)C)C(=O)N[C@@H](Cc1c[nH]c2ccccc12)C(=O)N[C@@H](Cc1c[nH]cn1)C(=O)N[C@@H](CO)C(=O)O [Peptide 67.2, LSDFVPQDIQKLWHS] (H-LSDFVPQDIQKLWHS-OH)
solubility: > 2500 µg/mL

CC(C)[C@H](NC(=O)[C@H](Cc1ccc(O)cc1)NC(=O)[C@H](CO)NC(=O)[C@H](CO)NC(=O)[C@H](C)NC(=O)[C@H](CC(=O)O)NC(=O)[C@H](CO)NC(=O)[C@H](C)NC(=O)[C@H](Cc1ccccc1)NC(=O)[C@H](Cc1ccc(O)cc1)NC(=O)[C@@H](NC(=O)[C@H](Cc1ccc(O)cc1)NC(=O)[C@H](C)NC(=O)CNC(=O)[C@@H](N)CCCCN)C(C)C)C(=O)O [Peptide 68.2.1, KGAYVYFASDASSYV] (H-KGAYVYFASDASSYV-OH)
solubility: < 2500 µg/mL

CC[C@H](C)[C@H](NC(=O)[C@H](Cc1ccccc1)NC(=O)[C@H](Cc1ccc(O)cc1)NC(=O)CNC(=O)[C@H](CCCCN)NC(=O)[C@@H](N)CC(=O)O)C(=O)N[C@@H](CCC(=O)O)C(=O)N1CCC[C@H]1C(=O)N[C@H](C(=O)N[C@H](C(=O)N[C@@H](Cc1ccccc1)C(=O)N[C@@H](CO)C(=O)N[C@@H](CC(N)=O)C(=O)N[C@H](C(=O)N[C@H](C(=O)O)[C@@H](C)O)C(C)C)[C@@H](C)CC)[C@@H](C)O [Peptide 70.2, DKGYFIEPTIFSNVT] (H-DKGYFIEPTIFSNVT-OH; N-terminus and C-terminus assumed)
solubility: < 2500 µg/mL

CC[C@H](C)[C@H](NC(=O)[C@H](CO)NC(=O)[C@@H](NC(=O)[C@@H](NC(=O)[C@H](CCCCN)NC(=O)[C@@H](NC(=O)[C@H](CCC(N)=O)NC(=O)[C@@H](NC(=O)[C@H](Cc1ccc(O)cc1)NC(=O)[C@H](CC(N)=O)NC(=O)[C@H](CC(=O)O)NC(=O)[C@@H](N)CC(C)C)[C@@H](C)CC)[C@@H](C)O)[C@@H](C)O)C(C)C)C(=O)N[C@@H](CCCNC(=N)N)C(=O)N[C@@H](CC(C)C)C(=O)NCC(=O)O [Peptide 71.2, LDNYIQTKTVSIRLG] (H-LDNYIQTKTVSIRLG-OH)
solubility: < 2500 µg/mL

CC[C@H](C)[C@H](NC(=O)[C@H](CO)NC(=O)[C@@H](NC(=O)[C@@H](NC(=O)[C@H](CCCCN)NC(=O)[C@@H](NC(=O)[C@@H](N)CCC(N)=O)[C@@H](C)O)[C@@H](C)O)C(C)C)C(=O)N[C@@H](CCCNC(=N)N)C(=O)N[C@@H](CC(C)C)C(=O)NCC(=O)N[C@@H](CC(=O)O)C(=O)N[C@H](C(=O)N[C@@H](CC(C)C)C(=O)N[C@@H](Cc1ccccc1)C(=O)NCC(=O)O)C(C)C [Peptide 71.3, QTKTVSIRLGDVLFG] (H-QTKTVSIRLGDVLFG-OH)
solubility: > 2500 µg/mL
